Data on 19 compounds can be found in patent publication US11660303B2, “2-phenylimidazo[4,5-b]pyridin-7-amine derivates useful as inhibitors of mammalian tyrosine kinase ROR1 activity” (KANCERA AB, priority 2016, dated 2023).

Assay [1] relates to PBMC from healthy volunteers. The assay can be described thus: CellTiter-Blue Cell Viability Assay, PBMC from healthy volunteers. Conditions: Homo sapiens, cell toxicity, culture 24, 48 and 72 h (time of the values not stated). It is filed as cell-based. How it is done: (§1) The CellTiter-Blue® Cell Viability Assay provides a homogeneous, fluorometric method for estimating the number of viable cells present in multi-well plates. The assay uses the indicator dye resazurin to measure the metabolic capacity of cells. Viable cells retain the ability to reduce resazurin into resorufin, which is highly fluorescent.
(§2) Stock solutions (10 or 100 mM in DMSO) of compounds were serially diluted 1:2 in 11 concentrations and 25 nL/well (100 mM stock) or 50 nL/well (10 mM stock) were acoustically dispensed in assay plates with an EDC acoustic dispenser. Final starting concentration in the assay was 20 μM (0.2% DMSO) or 100 μM (0.1% DMSO) for test compounds.
(§3) Peripheral blood mononuclear cells (PBMC) from CLL patients or healthy volunteers were seeded in assay plates (384-well black/clear, Greiner #781091) pre-dispensed with compounds, 25 μL/well, and cultured for 24, 48 and 72 h. The cell concentration was 50 000 cells/well for PBMC from CLL patients or healthy volunteers. After 24, 48 and 72 h culture, Celltiter Blue reagent was added (5 μL/well) and the plates were incubated for 2 h. The plates were read in an Envision fluorescence reader (PerkinElmer) with Ex544 nm/Em590 nm. Results were calculated as % cytotoxicity compared to background (cells treated with 0.2% DMSO).
(§4) Thus, IC50 values for cell toxicity in PBMC from CLL patients as well as healthy volunteers for some compounds of the invention are shown in Table 3 as measured by the CellTiter-Blue® Cell Viability Assay.
(Alamar Blue is a resazurin reagent that responds to reducing activity.)

Another assay relates to PBMC from CLL patients. Kind of assay: CellTiter-Blue Cell Viability Assay, PBMC from CLL patients. It is filed as cell-based. Conditions: Homo sapiens, cell toxicity, culture 24, 48 and 72 h (time of the values not stated). How it is done: as §1, §2, §3, §4

For orientation: IC50 means the concentration needed to halve the response being measured. High values mean lower potency, low ones higher potency. Take `COCCN1CCN(c2ccc(-c3nc4c(NC5CCN(CCC#N)CC5)c(Cl)cnc4[nH]3)cc2)CC1` [Example 396, 3-{4-[(6-Chloro-2-{4-[4-(2-methoxyethyl)piperazin-1-yl]phenyl}-3H-imidazo[4,5-b]pyridin-7-yl)amino]piperidin-1-yl}propanenitrile]: the IC50 in assay [1] was above 20000 nM; in the assay with PBMC from CLL patients, 190 nM.
Taken in the same sequence, the figures for `CCN1CCC(Nc2c(Br)cnc3[nH]c(-c4ccc(N5CCN(C(=O)c6ccncc6)CC5)cc4)nc23)CC1` [Example 331, 6-Bromo-N-(1-ethylpiperidin-4-yl)-2-{4-[4-(pyridin-4-ylcarbonyl)piperazin-1-yl]phenyl}-3H-imidazo[4,5-b]pyridin-7-amine] were above 20000 nM and 190 nM.
Turning to `COCCN1CCN(c2ccc(-c3nc4c(NC5CCN(Cc6ccc(O)c(OC)c6)CC5)c(Cl)cnc4[nH]3)cc2)CC1` [Example 103, 4-({4-[(6-Chloro-2-{4-[4-(2-methoxyethyl)piperazin-1-yl]phenyl}-3H-imidazo[4,5-b]pyridin-7-yl)amino]piperidin-1-yl}methyl)-2-methoxyphenol], the IC50 in assay [1] is above 20000 nM; in the assay on PBMC from CLL patients, 350 nM.
As for `COCCCN1CCN(c2ccc(-c3nc4c(NC5CCN(C(C)C)CC5)c(Cl)cnc4[nH]3)cc2)CC1=O` [Example 246, 4-[4-(6-Chloro-7-{[1-(1-methylethyl)piperidin-4-yl]amino}-3H-imidazo[4,5-b]pyridin-2-yl)phenyl]-1-(3-methoxypropyl)piperazin-2-one], the half-maximal inhibitory concentration (IC50) in assay [1] was above 20000 nM; in the assay on PBMC from CLL patients, 110 nM.
In the same order, the values of `CN1CCC(Nc2c(Cl)cnc3[nH]c(-c4ccc(N5CCN(Cc6ccccc6)C(=O)C5)cc4)nc23)CC1` [Example 291, 1-Benzyl-4-(4-{6-chloro-7-[(1-methylpiperidin-4-yl)amino]-3H-imidazo[4,5-b]pyridin-2-yl}phenyl)piperazin-2-one] are 6500 nM and 40 nM.
Taken in the same sequence, the figures for `CCOCCN1CCN(c2ccc(-c3nc4c(NC5CCN(CC)CC5)c(Cl)cnc4[nH]3)cc2)CC1` [Example 70, 6-Chloro-2-{4-[4-(2-ethoxyethyl)piperazin-1-yl]phenyl}-N-(1-ethylpiperidin-4-yl)-3H-imidazo[4,5-b]pyridin-7-amine] were above 20000 nM and 160 nM.
In the same order, the values of `CCN1CCC(Nc2c(Br)cnc3[nH]c(-c4ccc(N5CCN(Cc6cccnc6)CC5)cc4)nc23)CC1` [Example 174, 6-Bromo-N-(1-ethylpiperidin-4-yl)-2-{4-[4-(pyridin-3-ylmethyl)piperazin-1-yl]phenyl}-3H-imidazo[4,5-b]pyridin-7-amine] are above 20000 nM and 10 nM.
As for `COCCC(=O)N1CCN(c2ccc(-c3nc4c(NC5CCN(C)CC5)c(Cl)cnc4[nH]3)cc2)CC1` [Example 276, 6-Chloro-2-{4-[4-(3-methoxypropanoyl)piperazin-1-yl]phenyl}-N-(1-methylpiperidin-4-yl)-3H-imidazo[4,5-b]pyridin-7-amine], the IC50 in assay [1] is above 20000 nM; with PBMC from CLL patients, 50 nM.
Taken in the same sequence, the figures for `COc1ccc(CN2CCC(Nc3c(Cl)cnc4[nH]c(-c5ccc(N6CCN(C(C)=O)CC6)cc5)nc34)CC2)cc1` [Example 35, 2-[4-(4-Acetylpiperazin-1-yl)phenyl]-6-chloro-N-[1-(4-methoxybenzyl)piperidin-4-yl]-3H-imidazo[4,5-b]pyridin-7-amine] were above 20000 nM and 430 nM.
In the same order, the values of `COCCN1CCN(c2ccc(-c3nc4c(NC5CCN(CC6CC6)CC5)c(Cl)cnc4[nH]3)cc2)CC1=O` [Example 355, 4-[4-(6-Chloro-7-{[1-(cyclopropylmethyl)piperidin-4-yl]amino}-3H-imidazo[4,5-b]pyridin-2-yl)phenyl]-1-(2-methoxyethyl)piperrazin-2-one] are above 20000 nM and 110 nM.
As for `CN1CC[C@H](Nc2c(Cl)cnc3[nH]c(-c4ccc(N5CCN(Cc6ccncc6)CC5)cc4)nc23)C1` [Example 126, 6-Chloro-N-[(3S)-1-methylpyrrolidin-3-yl]-2-{4-[4-(pyridin-4-ylmethyl)piperazin-1-yl]phenyl}-3H-imidazo[4,5-b]pyridin-7-amine], the values for the half-maximal inhibitory concentration (IC50) (in assay [1]; in the assay with PBMC from CLL patients) were above 20000 nM and 130 nM, respectively.
In the same order, the values of `COCCN1CCCN(c2ccc(-c3nc4c(NC5CCN(C(C)C)CC5)c(Cl)cnc4[nH]3)cc2)CC1` [Example 63, 6-Chloro-2-{4-[4-(2-methoxyethyl)-1,4-diazepan-1-yl]phenyl}-N-[1-(1-methylethyl)piperidin-4-yl]-3H-imidazo[4,5-b]pyridin-7-amine] are above 20000 nM and 960 nM.
With `CCOCCN1CCN(c2ccc(-c3nc4c(NC5CC(C)(C)N(C)C(C)(C)C5)c(Br)cnc4[nH]3)cc2)CC1=O` [Example 342, 4-(4-{6-Bromo-7-[(1,2,2,6,6-pentamethylpiperidin-4-yl)amino]-3H-imidazo[4,5-b]pyridin-2-yl}phenyl)-1-(2-ethoxyethyl)piperazin-2-one], the values for the half-inhibitory concentration (IC50) (in assay [1]; with PBMC from CLL patients) were above 20000 nM and 40 nM, respectively.
As for `CN1CCC(Nc2c(Br)cnc3[nH]c(-c4ccc(N5CCN(c6ccncc6)CC5)cc4)nc23)CC1` [Example 16, 6-Bromo-N-(1-methylpiperidin-4-yl)-2-[4-(4-pyridin-4-ylpiperazin-1-yl)phenyl]-3H-imidazo[4,5-b]pyridin-7-amine], the IC50 was 17200 nM in assay [1] and 80 nM in the assay with PBMC from CLL patients.
Taken in the same sequence, the figures for `COc1ccc(CN2CCC(Nc3c(Cl)cnc4[nH]c(-c5ccc(N6CCN(S(C)(=O)=O)CC6)cc5)nc34)CC2)cc1` [Example 44, 6-Chloro-N-[1-(4-methoxybenzyl)piperidin-4-yl]-2-{4-[4-(methylsulfonyl)piperazin-1-yl]phenyl}-3H-imidazo[4,5-b]pyridin-7-amine] were above 20000 nM and 440 nM.
In the same order, the values of `COCCN1CCN(c2ccc(-c3nc4c(NC5CCN(C)CC5)c(Cl)cnc4[nH]3)cc2F)CC1` [Example 372, 6-Chloro-2-{3-fluoro-4-[4-(2-methoxyethyl)piperazin-1-yl]phenyl}-N-(1-methylpiperidin-4-yl)-3H-imidazo[4,5-b]pyridin-7-amine] are above 20000 nM and 310 nM.
Taken in the same sequence, the figures for `CCN1CCC(Nc2c(Br)cnc3[nH]c(-c4ccc(N5CCN(C)C(=O)C5)cc4)nc23)CC1` [Example 299, 4-(4-{6-Bromo-7-[(1-ethylpiperidin-4-yl)amino]-3H-imidazo[4,5-b]pyridin-2-yl}phenyl)-1-methylpiperazin-2-one] were above 20000 nM and 90 nM.
`CCN1CCC(Nc2c(Br)cnc3[nH]c(-c4ccc(N5CCNC(=O)CC5)cc4)nc23)CC1` [Example 53, 1-(4-{6-Bromo-7-[(1-ethylpiperidin-4-yl)amino]-3H-imidazo[4,5-b]pyridin-2-yl}phenyl)-1,4-diazepan-5-one]: the IC50 in assay [1] is above 20000 nM; with PBMC from CLL patients, 480 nM.
In the same order, the values of `CN1CCC(Nc2c(Cl)cnc3[nH]c(-c4ccc(N5CCCN(C)CC5)cc4)nc23)CC1` [Example 22, 6-Chloro-2-[4-(4-methyl-1,4-diazepan-1-yl)phenyl]-N-(1-methylpiperidin-4-yl)-3H-imidazo[4,5-b]pyridin-7-amine] are 18600 nM and 170 nM.
